Reference: patent US12502382B2, “EPAC1 inhibitors for the treatment of idiopathic pulmonary fibrosis” (INSERM (Institut National de la Santé et de la Recherche …, priority 2019, dated 2025)

Key:
[1] = tested on: Normal human lung fibroblast (NHLF); test: BrdU proliferation assay in normal human lung fibroblasts; format: cell-based; conditions: TGFβ treatment and serum stimulation (0.1% or 5% FBS), 48 hours, inhibitor 20 μM
Experimental: (§1) Cell Culture. Normal human lung fibroblast (NHLF) and lung fibroblast from IPF patients were purchased from Lonza, Inc. (Allendale, NJ) and cultured as recommended in FGM-2 medium supplemented with 5% fetal bovine serum (FBS) in 5% CO2 at 37° C. and passaged at the confluence. All the cell lines were tested by the manufacturers and negative for HIV-1, HBV, HCV, mycoplasma, bacteria, yeast, and fungi.
(§2) Pharmacological treatment. Cells were seeded at 250,000 cells/well in 6-well plates and maintained in a 37° C. incubator with 5% CO2 for 24 hrs prior to use. Cells were treated with TGF-β1 (2 ng/mL; 48 hrs) alone or in combination with either Epac1 inhibitor CE3F4 (20 μM; 48 hrs) or AM-001 (20 μM; 48 hrs).
(§3) The proliferation of NHLFs was measured by 5-bromo-2′-deoxyuridine (BrdU) incorporation using the Cell Proliferation ELISA, BrdU (colorimetric) assay (Roche, Indianapolis, IN), according to the manufacturer's instructions.

[2] = tested on: fibrosis markers (COL1, COL3, CTGF, TGFβ) in NHLF cells; test: qPCR of TGF-β1-induced fibrosis marker mRNA in NHLF; format: cell-based, human; conditions: TGF-β1 2 ng/mL 48 hrs, inhibitor 20 μM 48 hrs
Experimental: as §1, §2
(§4) Total RNA was isolated using TRIzol™ (Invitrogen) and purified using RNeasy mini columns (Qiagen), according to the manufacturer's instructions. The cDNA synthesis kit (Applied Biosystems, Foster City, CA) was used to synthesized cDNA, as described by the manufacturer. Quantitative RT-PCR was performed using the PerfeCTa SYBR™ Green FastMix kit (Quantabio, Beverly, MA) and specific primers against the indicated genes, according to the manufacturer's instructions. Fold changes in gene expression were determined using the relative comparison method with normalization to GAPDH as an internal loading control.

[3] = tested on: mouse model of bleomycin-induced pulmonary fibrosis; test: Hemodynamics and RV hypertrophy in bleomycin-induced pulmonary fibrosis mouse model; format: in vivo; conditions: 10 mg/kg i.p. every alternate day for 2 weeks
Experimental: Intratracheal bleomycin animal model. […] Animals were anesthetized by IP injection of xylazine/ketamine and were secured to a tray in the supine position. After intubation, the board was tilted at 45 degrees, and the IA-1C Microsprayer tip (PennCentury, Wyndmoor, PA) was inserted through the lumen of the angiocath. Animals were subjected to a single intratracheal injection of BLM (50 μL; 4 U/Kg) for 28 days.
Heart hemodynamic studies. The mice were anesthetized with (2-4%) isoflurane, intubated via tracheotomy, and mechanically ventilated with 1-2% isoflurane and oxygen (tidal volume, 6 mL/kg; respiratory rate, 100 breaths per minute). The thoracic cavity was opened, and the organs were accessed through a sternotomy. Once the pericardium was opened, and the heart was fully accessible, an ultrasonic flow probe (flow probe 2.5S176; Transonic Systems Inc., Ithaca, NY) was inserted into the RV to collect the right ventricular systolic pressure (RVSP). Hemodynamic data were recorded using a Scisense PV Control Unit (Scisense, Ontario, Canada).
Right Ventricular Weight Measurement. After the hemodynamic data were collected, the mice were harvested to collect the heart and lungs. […] The Fulton Index was calculated by the weight ratio of the RV weight to the LV plus septum weight (RV weight/LV+Septum weight) to specifically illustrate the RV hypertrophy. […]

[4] = tested on: mouse model of bleomycin-induced pulmonary fibrosis; test: Histology (Masson's trichrome, H&E, WGA) in bleomycin-induced pulmonary fibrosis mouse model; format: in vivo
Experimental: Intratracheal bleomycin animal model. […] Animals were anesthetized by IP injection of xylazine/ketamine and were secured to a tray in the supine position. After intubation, the board was tilted at 45 degrees, and the IA-1C Microsprayer tip (PennCentury, Wyndmoor, PA) was inserted through the lumen of the angiocath. Animals were subjected to a single intratracheal injection of BLM (50 μL; 4 U/Kg) for 28 days. The pharmacological inhibitor of Epac1, AM-001, was injected intraperitoneally every alternate day (10 mg/kg) for 2 weeks.
Hematoxylin & Eosin and Masson's trichrome staining. Lung tissue was harvested, inflated with PBS/OCT (50:50), and fixed (frozen in −80° C.) in OCT. Sections were cut to 8 μm and adhered to colorfrost glass slides (ThermoFisher). Lung tissue sections were stained with hematoxylin and eosin (H&E) and Masson's trichrome (Sigma-Aldrich) and visualized using light microscopy. The medial thickness and collagen deposition were then quantified using ImageJ software.
RV sections were fixed in 1% paraformaldehyde (PFA) and stained using fluorescence-tagged wheat germ agglutinin (WGA) (Invitrogen) overnight at 4° C. and imaged with on Zeiss Observer Z.1 microscope (Carl Zeiss) at ×160 magnification. The outlines of cardiac myocytes were traced, and the cardiomyocyte area was calculated using ImageJ software.

[5] = tested on: mouse model of bleomycin-induced pulmonary fibrosis; test: qPCR of marker mRNA in lung and RV tissues of bleomycin-challenged mice; format: in vivo
Experimental: Intratracheal bleomycin animal model. All of the animal experiments and handling were performed in accordance with NIH Guide for the Care and Use of Laboratory Animals. Animals were anesthetized by IP injection of xylazine/ketamine and were secured to a tray in the supine position. After intubation, the board was tilted at 45 degrees, and the IA-1C Microsprayer tip (PennCentury, Wyndmoor, PA) was inserted through the lumen of the angiocath. Animals were subjected to a single intratracheal injection of BLM (50 μL; 4 U/Kg) for 28 days. The pharmacological inhibitor of Epac1, AM-001, was injected intraperitoneally every alternate day (10 mg/kg) for 2 weeks.
as §4
Using a therapeutic strategy, mice were randomly allocated to a sham control-treated group that received intratracheal saline and PF group that received a single intratracheal aerosolization of BLM (4 U/kg). After 2 weeks, the BLM-challenged group was randomly assigned to receive either a vehicle or the Epac1 inhibitor AM-001 for two weeks (FIG. 4A). Vehicle or AM-001 was injected intraperitoneally every alternate day (10 mg/kg) for 2 weeks. […] To further investigate the potential therapeutic effect of Epac1 inhibition in PF, the interstitial fibrosis level and the vascular remodeling were next evaluated by histological analysis after 2 weeks of treatment. […] The inventors also measured by RT-qPCR the expression of several markers of fibrosis in the lung samples.

IPF fibroblasts [6] = test: BrdU proliferation assay in IPF fibroblasts; format: cell-based, human; conditions: basal condition, preliminary data
Experimental: as §1, §3

IPF fibroblasts [7] = test: qPCR of IL-6, α-SMA and FOXO3 mRNA in IPF fibroblasts; format: cell-based, human; conditions: 20 μM for 48 h
Experimental: as §1, §4

IPF fibroblasts [8] = test: Immunoblot of phospho-SMAD2/3, phospho-STAT3, phospho-AKT in IPF fibroblasts; format: cell-based, human; conditions: IPF fibroblast
Experimental: as §1
SDS-PAGE and Immunoblot Analysis. Protein lysates were prepared using RIPA lysis buffer (Boston BioProducts) containing a Protease/Phosphatase Inhibitor Cocktail (Pierce). After centrifugation for 20 min at 15000×g, the protein concentrations were determined using a bicinchoninic acid (BCA) assay (Sigma-Aldrich). The proteins were then separated by SDS-polyacrylamide gel electrophoresis and transferred to polyvinylidene difluoride membranes. The membranes were blocked with 5% Skim milk and hybridized overnight at 4° C. with the following primary antibodies: Epac1 (Cell signaling), phospho-SMAD2/3 (Cell signaling), phospho-STAT3 (Cell signaling), phospho-AKT (Cell signaling), Total AKT (Cell signaling), and GAPDH (Thermofisher). The membranes were then incubated with the appropriate secondary HRP-conjugated antibody (Cell signaling) for 1 hour, and the blots were developed using the ECL System (Thermofisher).

Epac1 = molecular target: T1, Epac1 (Homo sapiens, UniProt O95398); conditions: Laudette et al. 2019; cited from earlier work
T1 sequence (O95398 1-923): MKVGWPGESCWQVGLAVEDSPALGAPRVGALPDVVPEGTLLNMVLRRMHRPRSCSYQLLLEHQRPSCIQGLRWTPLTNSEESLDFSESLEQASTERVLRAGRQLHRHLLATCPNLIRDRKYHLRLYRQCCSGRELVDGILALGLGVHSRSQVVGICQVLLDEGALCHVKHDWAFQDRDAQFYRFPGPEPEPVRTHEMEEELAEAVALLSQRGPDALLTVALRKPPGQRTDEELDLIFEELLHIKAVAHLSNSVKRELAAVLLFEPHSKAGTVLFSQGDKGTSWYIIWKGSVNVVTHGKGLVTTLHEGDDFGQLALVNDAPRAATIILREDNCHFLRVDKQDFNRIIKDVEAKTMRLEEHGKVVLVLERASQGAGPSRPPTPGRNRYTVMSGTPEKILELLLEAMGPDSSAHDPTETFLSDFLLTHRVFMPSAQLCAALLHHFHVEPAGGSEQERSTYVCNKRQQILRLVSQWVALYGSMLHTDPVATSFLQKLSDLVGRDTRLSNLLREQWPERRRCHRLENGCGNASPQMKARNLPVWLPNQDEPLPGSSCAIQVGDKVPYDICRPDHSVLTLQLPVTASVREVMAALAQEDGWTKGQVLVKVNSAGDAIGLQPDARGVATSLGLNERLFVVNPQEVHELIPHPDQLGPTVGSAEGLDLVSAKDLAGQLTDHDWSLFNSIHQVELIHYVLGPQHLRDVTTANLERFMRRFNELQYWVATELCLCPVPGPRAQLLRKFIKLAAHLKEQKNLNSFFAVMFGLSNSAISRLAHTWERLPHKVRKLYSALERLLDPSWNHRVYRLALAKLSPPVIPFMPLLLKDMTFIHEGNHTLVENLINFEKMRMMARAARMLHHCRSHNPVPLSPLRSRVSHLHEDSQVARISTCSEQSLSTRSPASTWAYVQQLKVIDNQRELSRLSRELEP

Epac2 = Epac2 (Homo sapiens, UniProt Q8WZA2); conditions: Laudette et al. 2019; cited from earlier work
Epac2, sequence (Q8WZA2 whole entry, species assumed): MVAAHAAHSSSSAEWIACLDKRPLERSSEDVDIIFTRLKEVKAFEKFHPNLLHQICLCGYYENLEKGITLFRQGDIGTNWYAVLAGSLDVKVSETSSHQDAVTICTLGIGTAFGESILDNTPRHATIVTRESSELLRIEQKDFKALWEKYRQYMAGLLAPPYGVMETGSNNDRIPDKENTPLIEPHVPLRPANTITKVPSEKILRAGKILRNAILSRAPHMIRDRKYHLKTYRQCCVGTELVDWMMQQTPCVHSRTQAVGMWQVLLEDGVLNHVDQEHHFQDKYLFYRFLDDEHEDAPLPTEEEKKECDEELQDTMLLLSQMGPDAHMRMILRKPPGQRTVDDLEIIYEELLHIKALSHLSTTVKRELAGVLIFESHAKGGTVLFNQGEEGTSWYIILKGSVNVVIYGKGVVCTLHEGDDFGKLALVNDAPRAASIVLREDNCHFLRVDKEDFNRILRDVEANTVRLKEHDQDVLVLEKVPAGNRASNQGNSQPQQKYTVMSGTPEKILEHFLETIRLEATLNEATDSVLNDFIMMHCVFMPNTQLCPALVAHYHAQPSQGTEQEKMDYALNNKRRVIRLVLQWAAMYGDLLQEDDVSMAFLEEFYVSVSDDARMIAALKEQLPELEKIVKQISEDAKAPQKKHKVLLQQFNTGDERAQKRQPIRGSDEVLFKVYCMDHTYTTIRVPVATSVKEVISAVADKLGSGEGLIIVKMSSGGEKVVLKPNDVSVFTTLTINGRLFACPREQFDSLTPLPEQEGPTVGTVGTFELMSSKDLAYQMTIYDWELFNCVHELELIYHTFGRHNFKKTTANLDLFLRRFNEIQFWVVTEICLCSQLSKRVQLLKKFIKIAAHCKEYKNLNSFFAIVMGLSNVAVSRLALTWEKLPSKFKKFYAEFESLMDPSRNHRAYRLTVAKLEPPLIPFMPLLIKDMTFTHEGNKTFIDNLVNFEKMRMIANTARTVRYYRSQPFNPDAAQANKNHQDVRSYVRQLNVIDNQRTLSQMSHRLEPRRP

protein kinase A (PKA) = conditions: Laudette et al. 2019; cited from earlier work
[9] = tested on: myocardial I/R injury and chronic β-AR activation; conditions: Laudette et al. 2019; cited from earlier work
[10] = prevents its use for in vivo applications; cited from earlier work
[11] = BLM-challenged mice, 10 mg/kg i.p. every alternate day for 2 weeks
[12] = BLM+AM-001 vs BLM+vehicle, WT mice

## Nc1c(C(=O)Nc2ccc(F)cc2)sc2nc(-c3cccs3)cc(-c3ccccc3)c12 [AM-001, 3-amino-N-(4-fluorophenyl)-4-phenyl-6-(thiophen-2-yl)thieno[2,3-b]pyridine-2-carboxamide]
[1]
  proliferation of NHLFs (BrdU): inhibited
[2]
  mRNA expression of fibrosis markers (COL1, COL3, CTGF, TGFβ) induced by TGFβ: impaired the upregulation
[3]; BLM 4 U/kg intratracheal, vs control group
  right ventricular systolic pressure (RVSP): reduction
[3]; BLM-challenged mice
  RV hypertrophy (Fulton Index): significantly decreased
[4]; BLM mice, vs vehicle-treated BLM mice
  pulmonary vascular remodeling (medial thickness of distal pulmonary arteries): markedly diminished
[4]; [11]
  cardiomyocyte size in RV (WGA staining): reduction
[4]; BLM-challenged mice, 10 mg/kg i.p. every alternate day for 2 weeks, vs vehicle
  interstitial and perivascular fibrosis (Masson's trichrome): significantly decreased
[5]; [12]
  FGFR1 mRNA level: significantly decreasing
  TNC mRNA level: trend decrease
[5]; BLM-challenged mice, RV tissues
  upregulation of fibrosis and hypertrophic gene markers (ANP, BNP, β-MHC) in RV: compromised
[5]; [11]
  COLI mRNA level in lung samples: markedly reduced
  COLIII mRNA level in lung samples: markedly reduced
  CTGF mRNA level in lung samples: markedly reduced
  TGFβ mRNA level in lung samples: markedly reduced
IPF fibroblasts [6]
  IPF fibroblasts proliferation (BrdU): decrease
IPF fibroblasts [7]
  FOXO3 mRNA expression: restored
  IL-6 mRNA expression: attenuates
  α-SMA mRNA expression: attenuates
IPF fibroblasts [8]
  phosphorylation of AKT: decreased
  phosphorylation of SMAD2/3: decreased
  phosphorylation of STAT3: decreased
Epac1
  inhibitory activity toward Epac1: selective inhibitory activity
Epac2
  antagonist effect on Epac2: no antagonist effect
Protein kinase A (PKA)
  antagonist effect on protein kinase A (PKA) activity: no antagonist effect
[9]
  cardioprotection against myocardial I/R injury and detrimental effects of chronic β-AR activation: cardioprotective properties

## CC1CCc2c(cc(Br)c(F)c2Br)N1C=O (stereo not shown) [CE3F4]
[1]
  proliferation of NHLFs (BrdU): significantly decreased
[2]
  mRNA expression of fibrosis markers (COL1, COL3, CTGF, TGFβ) induced by TGFβ: impaired the induction
[10]
  biodisponibility: low
